Data as given in the NIST ThermoML archive (doi:10.1016/j.fluid.2012.12.022).
± gives the expanded uncertainty stated by the source.

What was measured:
[1] = Liquid; for Normal boiling temperature: Distillation; for mass density: 298.15 K, 101.33 kPa, Vibrating tube method
[2] = refractive index (Na D-line) (dimensionless); conditions: 298.15 K; 101.33 kPa; Liquid; Standard Abbe refractometry

| Normal boiling temperature [1] | refractive index [2] | mass density [1] | SMILES |
| --- | --- | --- | --- |
| 197.12 ± 0.41 °C | 1.4308 ± 0.0005 | – | OCCO [1,2-ethanediol] |
| 77.90 ± 0.41 °C | 1.3594 ± 0.0005 | 785.18 ± 0.15 kg/m3 | CCO [ethanol] |
| 289.90 ± 0.41 °C | 1.4726 ± 0.0005 | 1258.52 ± 0.19 kg/m3 | OCC(O)CO [glycerol] |
| 100.00 ± 0.41 °C | 1.3325 ± 0.0005 | – | O [water] |
